Reference: US8048880B2, “Treatment of cardiovascular disease and dyslipidemia using secretory phospholipase A2 (SPLA2) inhibitors and SPLA2 inhibitor combination therapies” (Anthera Pharmaceuticals, Inc., priority 2007, dated 2011)

Legend:
ApoE−/− mice = experiment: Angiotensin II-mediated atherosclerotic plaque formation and aneurysm in ApoE−/− mice (Example 2); type: in vivo
Procedure: A mouse model of accelerated atherosclerosis was utilized to determine the effect of A-002 administration on atherosclerosis and aneurysm formation. ApoE^−/− mice acclimated to the same high fat diet utilized in Example 1 were administered angiotensin II with water, angiotensin with 5% acacia, or saline infusion and water twice daily for four weeks. […] At the end of the test period, plaque coverage was assessed by three independent reviewers, and their assessments were averaged to determine plaque coverage.

sPLA2 = experiment: Serum sPLA2 concentration in humans, A-002 twice a day (Example 4); type: in vivo, human; conditions: ITT population, week 8
Procedure: 204 human subjects from the United States with CVD, specifically stable coronary artery disease, were randomized to receive placebo or A-002 via oral administration twice a day over an eight week administration period at dosages of 50 mg, 100 mg, 250 mg, or 500 mg. Levels of various lipids and inflammatory markers were measured at the outset of the trial and at the end of weeks four and/or eight. For data sets with a normal distribution, mean levels of lipids or inflammatory markers were analyzed. For data sets with non-normal distribution, median levels were analyzed. […] In addition, administration of A-002 decreased median levels of CRP (Table 11).

[1] = test system: human subjects with CVD, specifically stable CAD; experiment: Serum lipid levels and LDL particle size in humans, A-002 once a day for eight weeks (Example 6); type: in vivo; conditions: for % change vs. baseline (mean LDL particle size) / % change vs. baseline (mean [non-HDL cholesterol]) / % change vs. baseline (mean [total cholesterol]) / % change vs. baseline (median [ApoB]) / % change vs. baseline (median [TG]) / % change vs. baseline (median [oxidized LDL]) / % change vs. baseline (median [small LDL particle]) / Change in mean LDL particle size vs. baseline / Change in mean [non-HDL cholesterol] vs. baseline / Change in mean [total cholesterol] vs. baseline / Change in median [ApoB] vs. baseline / Change in median [TG] vs. baseline / Change in median [oxidized LDL] vs. baseline / Change in median [small LDL particle] vs. baseline / % change vs. baseline (mean [LDL]) / Change in mean [LDL] vs. baseline: week 8
CRP = experiment: Serum CRP concentration in humans, A-002 once a day (Example 6); type: in vivo, human; conditions: week 8
Procedure: 135 human subjects over the age of 18 with CVD, specifically stable CAD, were randomized to receive either placebo or one of two dosages (250 mg or 500 mg) of A-002 via once a day oral administration over an eight week time period. 89 of the subjects received A-002, while 46 of the subjects received placebo. Subjects that were receiving statins or other compounds used in the treatment of CVD at the outset of the trial continued to receive those therapeutics throughout the trial. 121 of the 135 subjects were on statins during the trial. There was little variation between dosage groups with respect to age, height, weight, or BMI.
Levels of various lipids and inflammatory markers were measured at the outset of the trial and at weeks two, four, and/or eight weeks after the start of A-002 administration. In addition, plasma A-002 levels were measured at various intervals. Lipids that were measured included LDL, small LDL particle, oxidized LDL, non-HDL cholesterol, total cholesterol, ApoB, and triglycerides. In addition, levels of the inflammatory marker CRP were measured. Lipid and inflammatory marker levels at each timepoint were compared to the baseline measurements to determine the effect of A-002 administration. For data sets with a normal distribution, mean levels of lipids or inflammatory markers were analyzed. For data sets with non-normal distribution, median levels were analyzed. LDL particle size was also assessed.

[2] = ITT population, A-002 once a day
[3] = serum, ITT population, A-002 250 or 500 mg once a day
[4] = statin subpopulation with baseline serum LDL greater than 70 mg/dl, A-002 once a day
[5] = statin subpopulation, A-002 once a day
[6] = statin subpopulation with baseline serum LDL greater than 70 mg/dl

Compound: CCc1c(C(=O)C(N)=O)c2c(OCC(=O)OC)cccc2n1Cc1ccccc1 [A-002, [[3-(2-Amino-1,2-dioxoethyl)-2-ethyl-1-(phenylmethyl)-1H-indol-4-yl]oxy]acetic acid methyl ester]
- Aneurysm rate (%) (ApoE−/− mice; angiotensin II + 5% acacia + 30 mg/kg A-002 twice daily, four weeks): 0% (0/16)
- plaque content (ApoE−/− mice; angiotensin II/acacia mice, 30 mg/kg A-002 twice daily, four weeks (FIG. 4)): significantly decreased
- % change vs. baseline (median [sPLA2]) (sPLA2): −86.96%
- Change in median [sPLA2] vs. baseline (sPLA2): -2.00 ng/mL
- combined effect of A-002 and statins on LDL levels versus either compound alone ([1]; A-002 once a day, expected once additional non-statin controls are obtained): synergistic decrease in LDL levels
- % change vs. baseline (mean LDL particle size) [1, 2]: +0.6%
- % change vs. baseline (mean [non-HDL cholesterol]) [1, 2]: −9.9%
- % change vs. baseline (mean [total cholesterol]) [1, 2]: −7.3%
- % change vs. baseline (median [ApoB]) [1, 2]: −11.9%
- % change vs. baseline (median [TG]) [1, 2]: −9.8%
- % change vs. baseline (median [oxidized LDL]) [1, 2]: −3.6%
- % change vs. baseline (median [small LDL particle]) [1, 2]: −9.1%
- Change in mean LDL particle size vs. baseline [1, 2]: +0.11 nm
- Change in mean [non-HDL cholesterol] vs. baseline [1, 2]: -10.5 mg/dL
- Change in mean [total cholesterol] vs. baseline [1, 2]: -11.5 mg/dL
- Change in median [ApoB] vs. baseline [1, 2]: -8.1 mg/dL
- Change in median [TG] vs. baseline [1, 2]: -13.0 mg/dL
- Change in median [oxidized LDL] vs. baseline [1, 2]: −1.4 U/L
- Change in median [small LDL particle] vs. baseline [1, 2]: -74.0 nmol/L
- % change vs. baseline (mean [LDL]) [1, 3]: −8.3%
- Change in mean [LDL] vs. baseline [1, 3]: -7.1 mg/dL
- % change vs. baseline (mean LDL particle size) [1, 4]: +1.0%
- % change vs. baseline (mean [LDL]) [1, 4]: −15.0%
- % change vs. baseline (mean [non-HDL cholesterol]) [1, 4]: −13.7%
- % change vs. baseline (mean [total cholesterol]) [1, 4]: −10.5%
- % change vs. baseline (median [ApoB]) [1, 4]: −18.7%
- % change vs. baseline (median [oxidized LDL]) [1, 4]: −5.6%
- % change vs. baseline (median [small LDL particle]) [1, 4]: −12.3%
- Change in mean LDL particle size vs. baseline [1, 4]: +0.19 nm
- Change in mean [LDL] vs. baseline [1, 4]: -13.9 mg/dL
- Change in mean [non-HDL cholesterol] vs. baseline [1, 4]: -16.7 mg/dL
- Change in mean [total cholesterol] vs. baseline [1, 4]: -18.0 mg/dL
- Change in median [ApoB] vs. baseline [1, 4]: -13.1 mg/dL
- Change in median [oxidized LDL] vs. baseline [1, 4]: −2.8 U/L
- Change in median [small LDL particle] vs. baseline [1, 4]: -115.0 nmol/L
- % change vs. baseline (mean LDL particle size) [1, 5]: +0.5%
- % change vs. baseline (mean [LDL]) [1, 5]: −8.2%
- % change vs. baseline (mean [non-HDL cholesterol]) [1, 5]: −9.9%
- % change vs. baseline (mean [total cholesterol]) [1, 5]: −7.3%
- % change vs. baseline (median [ApoB]) [1, 5]: −11.9%
- % change vs. baseline (median [TG]) [1, 5]: −10.9%
- % change vs. baseline (median [oxidized LDL]) [1, 5]: −2.9%
- % change vs. baseline (median [small LDL particle]) [1, 5]: −8.2%
- Change in mean LDL particle size vs. baseline [1, 5]: +0.10 nm
- Change in mean [LDL] vs. baseline [1, 5]: -6.7 mg/dL
- Change in mean [non-HDL cholesterol] vs. baseline [1, 5]: -10.1 mg/dL
- Change in mean [total cholesterol] vs. baseline [1, 5]: -11.2 mg/dL
- Change in median [ApoB] vs. baseline [1, 5]: -7.9 mg/dL
- Change in median [TG] vs. baseline [1, 5]: -13.0 mg/dL
- Change in median [oxidized LDL] vs. baseline [1, 5]: −1.1 U/L
- Change in median [small LDL particle] vs. baseline [1, 5]: -66.0 nmol/L
- % change vs. baseline (median [CRP]) (CRP; ITT population): +5.4%
- % change vs. baseline (median [CRP]) (CRP; [6]): +9.1%
- Change in median [CRP] vs. baseline (CRP; [6]): +0.10 mg/L
- % change vs. baseline (median [CRP]) (CRP; statin subpopulation): +8.7%
- Change in median [CRP] vs. baseline (CRP; statin subpopulation): +0.10 mg/L
